Where two headings read alike, the source gives them in different places.

The target in test [1] is Adrenergic Receptor α1A (ADRA1A) (Homo sapiens, UniProt P35348). Nature of the test: SAFETYscan ADRA1A Calcium Flux. Particulars: 10 μM HU-MCA-13, read-out: Maximal Response. It counts as cell-based. A general note: Calcium flux is commonly read through the fluorescence of an indicator in the cells.
The target in test [2] is Muscarinic acetylcholine Receptor M3 (CHRM3) (Homo sapiens, UniProt P20309). Nature of the test: cell-based. Particulars: 10 μM HU-MCA-13, read-out: Maximal Response.
Test [3] addresses Cannabinoid Receptor 2 (CNR2) (Homo sapiens, UniProt P34972). The test is described as follows: SAFETYscan CNR2 cAMP. As to conditions: 10 μM HU-MCA-13; for Emax: read-out: Maximal Response. Format: cell-based.
Test [4] deals with 5-Hydroxytryptamine (Serotonin) Receptor 1B (HTR1B) (Homo sapiens, UniProt P28222). Nature of the test: SAFETYscan HTR1B cAMP. Particulars: 10 μM HU-MCA-13, read-out: Maximal Response. Format: cell-based.
In test [5] the target is Opioid Receptor Mu 1 (OPRM1) (Homo sapiens, UniProt P35372). The test is described as follows: cell-based. Particulars: 10 μM HU-MCA-13, read-out: Maximal Response.
Test [6] deals with T1, Nicotinic acetylcholine Receptor-alpha-4 beta-2 (nAChR (a4/b2)) (Homo sapiens, UniProt P17787+P43681).
T1 construct: DiscoverX (SAFETYscan contract panel)
The test is described as follows: cell-based. Particulars: 10 μM HU-MCA-13, read-out: Maximal Response. It counts as cell-based.

Test [7] deals with T2, Insulin Receptor (tyrosine kinase) (INSR) (Homo sapiens, UniProt P06213).
T2 construct: DiscoverX (KINOMEscan)
The test is described as follows: SAFETYscan INSR kinase Binding. Particulars: Inhibitor mode, 10 μM HU-MCA-13, read-out: Maximal Response.

Test [8] addresses T3, Lymphocyte Cell-Specific Protein-Tyrosine Kinase (Src family) (LCK) (Homo sapiens, UniProt P06239).
T3 construct: DiscoverX (KINOMEscan)
Nature of the test: SAFETYscan LCK kinase Binding. Particulars: Inhibitor mode, 10 μM HU-MCA-13, read-out: Maximal Response.

The target in test [9] is T4, Rho Associated Coiled-Coil Containing Protein Kinase 1 (serine-threonine kinase) (ROCK1) (Homo sapiens, UniProt Q13464).
T4 construct: DiscoverX (KINOMEscan)
The test is described as follows: SAFETYscan ROCK1 kinase Binding. Particulars: Inhibitor mode, 10 μM HU-MCA-13, read-out: Maximal Response.

For test [10], the target named is T5, Vascular endothelial growth factor receptor 2 (KDR tyrosine kinase) (VEGFR2) (Homo sapiens, UniProt P35968).
T5 construct: DiscoverX (KINOMEscan)
The test is described as follows: SAFETYscan VEGFR2 kinase Binding. As to conditions: Inhibitor mode, 10 μM HU-MCA-13, read-out: Maximal Response.

The target in test [11] is T6, Nuclear Hormone Androgen Receptor (AR) (Homo sapiens, UniProt P10275).
T6 construct: DiscoverX (SAFETYscan contract panel)
The test is described as follows: SAFETYscan AR Nuclear Hormone Receptor Translocation. It counts as cell-based. Particulars: 10 μM HU-MCA-13.

Test [12] addresses T7, Cyclooxygenase 1 (COX 1) (Homo sapiens, UniProt P23219).
T7 construct: DiscoverX (SAFETYscan contract panel)
The test is described as follows: SAFETYscan COX 1 Enzymatic. Format: biochemical. Particulars: Inhibitor mode; 10 μM HU-MCA-13; read-out: Maximal Response.

In test [13] the target is T8, Monoamine oxidase type A (MAOA) (Homo sapiens, UniProt P21397).
T8 construct: DiscoverX (SAFETYscan contract panel)
The test is described as follows: SAFETYscan MAOA Enzymatic. As to conditions: Inhibitor mode; 10 μM HU-MCA-13; read-out: Maximal Response. Format: biochemical.

In test [14] the target is T9, Dopamine transporter (DAT) (Homo sapiens, UniProt Q01959).
T9 construct: DiscoverX (SAFETYscan contract panel)
The test is described as follows: SAFETYscan DAT Transporter. It counts as cell-based. Particulars: Blocker mode; 10 μM HU-MCA-13; read-out: Maximal Response.

The target of test [15] is T10, Norepinephrine transporter (NET) (Homo sapiens, UniProt P23975).
T10 construct: DiscoverX (SAFETYscan contract panel)
The test is described as follows: SAFETYscan NET Transporter. Format: cell-based. As to conditions: Blocker mode; 10 μM HU-MCA-13; read-out: Maximal Response.

Chain of Cannabinoid Receptor 2 (CNR2) (P34972 whole entry): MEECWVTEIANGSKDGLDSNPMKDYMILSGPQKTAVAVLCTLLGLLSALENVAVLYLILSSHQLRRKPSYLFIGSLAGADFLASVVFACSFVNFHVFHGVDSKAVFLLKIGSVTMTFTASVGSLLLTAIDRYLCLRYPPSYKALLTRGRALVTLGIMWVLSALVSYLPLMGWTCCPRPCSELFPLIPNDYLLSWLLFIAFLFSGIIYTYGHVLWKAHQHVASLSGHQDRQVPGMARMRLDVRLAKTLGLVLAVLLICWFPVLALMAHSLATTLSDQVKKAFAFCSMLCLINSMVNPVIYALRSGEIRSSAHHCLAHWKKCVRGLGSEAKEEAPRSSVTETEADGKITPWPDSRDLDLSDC
Chain of Muscarinic acetylcholine Receptor M3 (CHRM3) (P20309 whole entry): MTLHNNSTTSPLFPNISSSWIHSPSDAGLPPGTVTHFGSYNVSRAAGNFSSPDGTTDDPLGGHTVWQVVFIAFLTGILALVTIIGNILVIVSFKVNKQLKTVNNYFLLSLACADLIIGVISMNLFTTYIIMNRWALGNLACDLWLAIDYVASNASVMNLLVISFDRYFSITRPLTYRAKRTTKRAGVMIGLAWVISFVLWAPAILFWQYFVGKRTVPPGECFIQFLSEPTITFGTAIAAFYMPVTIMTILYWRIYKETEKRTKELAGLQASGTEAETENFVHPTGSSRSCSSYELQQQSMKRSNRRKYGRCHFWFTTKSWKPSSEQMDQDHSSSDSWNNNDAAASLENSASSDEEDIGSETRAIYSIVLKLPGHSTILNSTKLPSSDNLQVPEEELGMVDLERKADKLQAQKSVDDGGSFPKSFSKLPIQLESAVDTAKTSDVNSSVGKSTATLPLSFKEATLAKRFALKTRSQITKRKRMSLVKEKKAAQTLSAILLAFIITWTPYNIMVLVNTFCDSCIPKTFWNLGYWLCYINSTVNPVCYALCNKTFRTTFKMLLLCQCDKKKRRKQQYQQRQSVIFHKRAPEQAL
Chain of Adrenergic Receptor α1A (ADRA1A) (P35348 whole entry): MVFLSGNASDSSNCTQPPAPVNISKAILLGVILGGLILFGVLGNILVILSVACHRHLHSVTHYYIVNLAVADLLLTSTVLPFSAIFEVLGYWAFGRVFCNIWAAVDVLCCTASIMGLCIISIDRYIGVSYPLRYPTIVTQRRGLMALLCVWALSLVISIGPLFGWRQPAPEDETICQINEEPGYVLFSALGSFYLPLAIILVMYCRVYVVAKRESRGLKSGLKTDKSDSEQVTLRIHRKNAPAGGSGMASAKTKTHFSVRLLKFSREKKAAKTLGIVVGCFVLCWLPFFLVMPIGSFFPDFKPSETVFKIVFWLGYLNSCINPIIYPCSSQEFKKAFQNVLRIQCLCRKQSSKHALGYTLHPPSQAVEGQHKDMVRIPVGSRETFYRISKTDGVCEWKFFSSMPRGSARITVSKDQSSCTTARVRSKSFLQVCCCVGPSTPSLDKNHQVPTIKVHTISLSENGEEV
Chain of Opioid Receptor Mu 1 (OPRM1) (P35372 whole entry): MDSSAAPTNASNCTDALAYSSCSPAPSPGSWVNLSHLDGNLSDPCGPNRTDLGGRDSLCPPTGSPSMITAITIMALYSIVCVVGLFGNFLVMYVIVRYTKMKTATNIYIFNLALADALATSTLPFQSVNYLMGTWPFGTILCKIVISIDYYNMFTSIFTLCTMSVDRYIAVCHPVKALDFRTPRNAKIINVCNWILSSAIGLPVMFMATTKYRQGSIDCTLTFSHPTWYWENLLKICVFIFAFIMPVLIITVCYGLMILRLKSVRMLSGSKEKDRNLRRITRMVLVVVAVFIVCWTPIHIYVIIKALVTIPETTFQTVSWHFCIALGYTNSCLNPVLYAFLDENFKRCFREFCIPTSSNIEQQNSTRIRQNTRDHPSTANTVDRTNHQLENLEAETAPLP
T6 sequence (P10275 whole entry): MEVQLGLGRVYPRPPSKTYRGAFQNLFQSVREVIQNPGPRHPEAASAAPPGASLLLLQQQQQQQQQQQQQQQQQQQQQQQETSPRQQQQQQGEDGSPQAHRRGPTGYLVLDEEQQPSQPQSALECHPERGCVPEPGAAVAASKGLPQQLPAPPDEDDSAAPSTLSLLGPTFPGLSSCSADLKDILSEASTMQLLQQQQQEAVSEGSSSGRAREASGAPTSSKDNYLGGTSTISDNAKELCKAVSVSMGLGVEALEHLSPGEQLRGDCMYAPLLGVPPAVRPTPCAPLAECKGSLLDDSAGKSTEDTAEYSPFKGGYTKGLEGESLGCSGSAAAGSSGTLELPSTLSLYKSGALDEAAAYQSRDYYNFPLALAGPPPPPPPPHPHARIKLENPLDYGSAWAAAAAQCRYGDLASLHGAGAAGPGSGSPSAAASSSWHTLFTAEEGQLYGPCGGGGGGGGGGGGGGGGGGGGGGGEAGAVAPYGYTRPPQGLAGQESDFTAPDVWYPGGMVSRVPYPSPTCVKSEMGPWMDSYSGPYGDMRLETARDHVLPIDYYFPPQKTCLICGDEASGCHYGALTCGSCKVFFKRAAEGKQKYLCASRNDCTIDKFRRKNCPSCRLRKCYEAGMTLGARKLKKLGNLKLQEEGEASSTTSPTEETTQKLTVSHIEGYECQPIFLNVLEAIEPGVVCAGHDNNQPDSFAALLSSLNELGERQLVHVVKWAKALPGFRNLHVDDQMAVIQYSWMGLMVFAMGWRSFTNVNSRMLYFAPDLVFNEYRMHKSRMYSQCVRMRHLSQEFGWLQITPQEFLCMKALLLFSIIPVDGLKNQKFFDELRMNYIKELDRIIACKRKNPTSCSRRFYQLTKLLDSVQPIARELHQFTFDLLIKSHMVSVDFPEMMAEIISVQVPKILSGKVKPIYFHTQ
Chain of 5-Hydroxytryptamine (Serotonin) Receptor 1B (HTR1B) (P28222 whole entry): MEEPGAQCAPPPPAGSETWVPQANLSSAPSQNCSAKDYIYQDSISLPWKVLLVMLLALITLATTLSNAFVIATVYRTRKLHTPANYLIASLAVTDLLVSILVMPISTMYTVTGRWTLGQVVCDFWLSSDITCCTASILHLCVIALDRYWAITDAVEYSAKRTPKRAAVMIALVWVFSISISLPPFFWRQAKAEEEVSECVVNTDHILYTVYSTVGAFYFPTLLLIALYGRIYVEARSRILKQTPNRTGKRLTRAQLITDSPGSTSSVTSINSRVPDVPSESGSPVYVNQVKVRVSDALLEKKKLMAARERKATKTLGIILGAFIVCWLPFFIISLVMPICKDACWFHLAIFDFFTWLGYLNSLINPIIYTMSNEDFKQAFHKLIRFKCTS
T1 sequence (P43681 29-627 limits assumed): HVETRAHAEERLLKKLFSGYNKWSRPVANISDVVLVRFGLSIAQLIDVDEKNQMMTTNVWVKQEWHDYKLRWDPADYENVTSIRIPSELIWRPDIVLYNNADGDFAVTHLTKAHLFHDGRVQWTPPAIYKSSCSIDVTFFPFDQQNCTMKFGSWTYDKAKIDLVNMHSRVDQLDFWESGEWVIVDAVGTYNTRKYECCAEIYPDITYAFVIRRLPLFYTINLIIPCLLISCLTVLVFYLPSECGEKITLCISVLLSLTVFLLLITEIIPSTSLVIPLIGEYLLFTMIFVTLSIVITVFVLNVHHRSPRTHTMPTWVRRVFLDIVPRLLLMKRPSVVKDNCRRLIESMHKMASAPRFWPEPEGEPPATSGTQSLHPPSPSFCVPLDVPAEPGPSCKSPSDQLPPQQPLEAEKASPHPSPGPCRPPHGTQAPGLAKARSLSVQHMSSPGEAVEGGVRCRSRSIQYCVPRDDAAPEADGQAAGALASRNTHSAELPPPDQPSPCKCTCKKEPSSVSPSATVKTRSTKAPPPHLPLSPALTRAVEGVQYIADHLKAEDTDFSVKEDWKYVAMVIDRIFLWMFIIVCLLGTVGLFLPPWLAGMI
T1 sequence (P17787 26-502): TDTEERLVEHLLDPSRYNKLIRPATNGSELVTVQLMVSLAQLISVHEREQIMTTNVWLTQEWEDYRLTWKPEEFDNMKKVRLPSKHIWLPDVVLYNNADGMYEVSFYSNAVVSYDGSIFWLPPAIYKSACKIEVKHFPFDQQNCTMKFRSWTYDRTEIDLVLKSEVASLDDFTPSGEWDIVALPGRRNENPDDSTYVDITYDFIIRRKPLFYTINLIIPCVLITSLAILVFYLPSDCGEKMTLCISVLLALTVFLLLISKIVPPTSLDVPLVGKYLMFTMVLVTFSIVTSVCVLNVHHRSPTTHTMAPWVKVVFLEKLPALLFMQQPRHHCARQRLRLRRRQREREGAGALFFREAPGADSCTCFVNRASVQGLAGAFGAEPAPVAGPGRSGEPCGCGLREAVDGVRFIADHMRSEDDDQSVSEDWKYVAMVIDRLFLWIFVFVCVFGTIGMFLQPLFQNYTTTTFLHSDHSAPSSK
T10 sequence (P23975 whole entry): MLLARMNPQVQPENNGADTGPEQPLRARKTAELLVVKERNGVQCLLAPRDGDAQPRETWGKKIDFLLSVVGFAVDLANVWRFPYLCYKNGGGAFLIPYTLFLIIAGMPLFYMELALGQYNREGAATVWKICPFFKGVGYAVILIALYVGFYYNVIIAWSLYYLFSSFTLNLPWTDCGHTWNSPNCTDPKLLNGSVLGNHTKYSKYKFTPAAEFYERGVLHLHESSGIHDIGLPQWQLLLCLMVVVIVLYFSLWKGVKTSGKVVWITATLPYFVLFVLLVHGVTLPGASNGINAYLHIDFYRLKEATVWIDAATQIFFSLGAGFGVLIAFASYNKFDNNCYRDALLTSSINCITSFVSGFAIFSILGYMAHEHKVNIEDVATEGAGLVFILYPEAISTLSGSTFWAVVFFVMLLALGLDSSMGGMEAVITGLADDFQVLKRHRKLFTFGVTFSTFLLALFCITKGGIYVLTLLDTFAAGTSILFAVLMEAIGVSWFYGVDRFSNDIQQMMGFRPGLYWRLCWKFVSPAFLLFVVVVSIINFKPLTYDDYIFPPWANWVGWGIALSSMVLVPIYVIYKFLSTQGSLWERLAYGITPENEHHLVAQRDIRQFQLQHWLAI

For `C=CCC1CCC[C@@H](CCC(=O)O)C1=C` (some centres unmarked) [Compound 13], the Emax was 1.12% in test [1] (Agonist mode); 3.06% in [1] (Antagonist mode); 0.13% in test [2] (Agonist mode); 8.81% in test [2] (Antagonist mode); 49.6% in [3] (Agonist mode); 4.11% in test [3] (Antagonist mode). Also, the Emax in test [4] (Agonist mode) was 10.5%; in test [4] (Antagonist mode) it was 0%; in [5] (OPRM1, Agonist mode) it was 9.31%; in [5] (OPRM1, Antagonist mode), 0.38%; in test [6] (Blocker mode), 5.95%; in test [6] (Opener mode), 0%. Besides, the Emax amounted to 3.22% in test [7]; 12.8% in test [8]; 21.6% in test [9]; 21.7% in [10]; 5.27% in [11] (Antagonist mode, read-out: Maximal Response); 0% in [11] (read-out: Maximal Response, Agonist mode). Besides, the Emax in test [12] was determined as 25%; in [13] it was 1.86%; in test [14] it was 0%; in test [15], 3.53%. In addition, in [3] (Agonist mode), the “Maximal Response” value is given as 49.59%.

Source of the values: patent US20200239398A1, “METHYLENE-CYCLOALKYLACETATE DERIVATIVES AND THEIR USE IN TREATMENT OF NEUROTROPIC CONDITIONS” (Yissum Research Development Company of The Hebrew …, priority 2018, published 2020).
